Results taken from US11746100B2 (GLOBAL BLOOD THERAPEUTICS, INC., priority 2020, dated 2023).

These molecules were tested against T1, human ferroportin (Homo sapiens, UniProt Q9NP59) (assay: Biological in-vitro ferroportin internalization assay (luciferase reporter)). Settings: average pEC50; stably-transfected CHO cell line expressing human ferroportin tagged to a luciferase reporter; 6 h incubation with test compound.
T1 construct: luciferase reporter (read with the Nano-Glo Luciferase Assay System); expressed in transfected cells; host or cells: CHO cells, stably transfected, expression induced with doxycycline
T1 sequence (Q9NP59 1-571): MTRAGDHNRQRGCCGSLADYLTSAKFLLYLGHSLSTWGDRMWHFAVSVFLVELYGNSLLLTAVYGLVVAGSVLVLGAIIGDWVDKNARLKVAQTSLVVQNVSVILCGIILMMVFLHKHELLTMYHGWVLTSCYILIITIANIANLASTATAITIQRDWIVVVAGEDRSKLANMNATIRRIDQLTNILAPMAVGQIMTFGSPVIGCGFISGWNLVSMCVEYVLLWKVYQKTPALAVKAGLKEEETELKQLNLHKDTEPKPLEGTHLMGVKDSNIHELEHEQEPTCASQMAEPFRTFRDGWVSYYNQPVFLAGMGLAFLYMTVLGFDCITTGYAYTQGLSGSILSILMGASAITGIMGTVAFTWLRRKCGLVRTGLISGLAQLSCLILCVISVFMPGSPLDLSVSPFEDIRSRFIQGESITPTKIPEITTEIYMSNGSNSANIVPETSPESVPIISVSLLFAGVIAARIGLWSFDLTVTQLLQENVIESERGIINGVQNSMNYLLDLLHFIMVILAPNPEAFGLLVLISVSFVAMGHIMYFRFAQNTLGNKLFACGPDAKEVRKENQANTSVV
Assay type: cell-based
Method in brief: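 Stably transfected CHO cells expressing luciferase-tagged human ferroportin, plated 24 h with ferric ammonium citrate and induced with doxycycline for 24 h. Compounds incubated 6 h, then luciferase activity measured by Nano-Glo; average pEC50 reported.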

pEC50 | Structure (SMILES)
6.9 | COc1ccccc1NC(=O)CN(C)c1nc(-c2ccccn2)nc2c1CCC2 [Compound 15, N-(2-methoxyphenyl)-2-{methyl[2-(pyridin-2-yl)-5H,6H,7H-cyclopenta[d]pyrimidin-4-yl]amino}acetamide]
7.2 | CN(CC(=O)NC(C)(C)CO)c1nc(-c2cn(C)cn2)nc2c1CCC2 [Compound 143, N-(1-hydroxy-2-methylpropan-2-yl)-2-{methyl[2-(1-methyl-1H-imidazol-4-yl)-5H,6H,7H-cyclopenta[d]pyrimidin-4-yl]amino}acetamide]
7.4 | CN(CC(=O)Nc1cccc(F)c1)c1nc(-c2cn(C)cn2)nc2c1CCC2 [Compound 271, N-(3-fluorophenyl)-2-{methyl[2-(1-methyl-1H-imidazol-4-yl)-5H,6H,7H-cyclopenta[d]pyrimidin-4-yl]amino}acetamide]
6.9 | CN(CC(=O)NC(C)(C)C)c1nc(-c2ccccn2)nc2c1CCCC2 [Compound 23, N-tert-butyl-2-{methyl[2-(pyridin-2-yl)-5,6,7,8-tetrahydroquinazolin-4-yl]amino}acetamide]
8 | CN(CC(=O)NC(C)(C)C)c1nc(-c2cc(OCCF)ccn2)nc2c1CCC2 [Compound 241, N-tert-butyl-2-({2-[4-(2-fluoroethoxy)pyridin-2-yl]-5H,6H,7H-cyclopenta[d]pyrimidin-4-yl}(methyl)amino)acetamide]
7.2 | CC(C)NC(=O)CN(C)c1nc(-c2cc(OCC(C)(C)O)ccn2)nc2c1CC(C)(C)C2 [Compound 449, 2-({2-[4-(2-hydroxy-2-methylpropoxy)pyridin-2-yl]-6,6-dimethyl-5H,6H,7H-cyclopenta[d]pyrimidin-4-yl}(methyl)amino)-N-(propan-2-yl)acetamide]
7.8 | CN(CC(=O)NC(C)(C)C)c1nc(-c2cc(OC[C@@H](O)CO)ccn2)nc2c1CCC2 [Compound 451, N-tert-butyl-2-[(2-{4-[(2S)-2,3-dihydroxypropoxy]pyridin-2-yl}-5H,6H,7H-cyclopenta[d]pyrimidin-4-yl)(methyl)amino]acetamide]
6.6 | CN(CC(=O)Nc1ccc(F)nc1)c1nc(-c2cc(OC(F)F)ccn2)nc2c1CCC2 [Compound 216, 2-({2-[4-(difluoromethoxy)pyridin-2-yl]-5H,6H,7H-cyclopenta[d]pyrimidin-4-yl}(methyl)amino)-N-(6-fluoropyridin-3-yl)acetamide]
7.6 | COc1cnc(NC(=O)CN(C)c2nc(-c3cc(OCCO)ccn3)nc3c2CCC3)cn1 [Compound 290, 2-({2-[4-(2-hydroxyethoxy)pyridin-2-yl]-5H,6H,7H-cyclopenta[d]pyrimidin-4-yl}(methyl)amino)-N-(5-methoxypyrazin-2-yl)acetamide]
5.5 | c1ccc(-c2nc3c(c(N4CC5CC4CO5)n2)CCC3)nc1 (centres unmarked) [Compound 72, 5-[2-(pyridin-2-yl)-5H,6H,7H-cyclopenta[d]pyrimidin-4-yl]-2-oxa-5-azabicyclo[2.2.1]heptane]
6.8 | CN(CC(=O)NC(C)(C)C)c1nc(-c2cc3ncsc3cn2)nc2c1CCC2 [Compound 328, N-tert-butyl-2-[methyl(2-{[1,3]thiazolo[5,4-c]pyridin-6-yl}-5H,6H,7H-cyclopenta[d]pyrimidin-4-yl)amino]acetamide]
7.5 | COc1ccnc(-c2nc3c(c(N(C)CC(=O)N[C@@H]4CCC[C@H]4O)n2)CCC3)c1 (relative stereo) [Compound 172, N-[(1R,2R)-2-hydroxycyclopentyl]-2-{[2-(4-methoxypyridin-2-yl)-5H,6H,7H-cyclopenta[d]pyrimidin-4-yl](methyl)amino}acetamide]
8.2 | CN1CCC[C@@H](Oc2ccnc(-c3nc4c(c(N(C)CC(=O)NC(C)(C)C)n3)CCC4)c2)C1 [Compound 489, N-tert-butyl-2-{methyl[2-(4-{[(3R)-1-methylpiperidin-3-yl]oxy}pyridin-2-yl)-5H,6H,7H-cyclopenta[d]pyrimidin-4-yl]amino}acetamide]
7.5 | COc1ccnc(-c2nc3c(c(N(C)CC(=O)NC4(C)CCCC4)n2)CCC3)c1 [Compound 155, 2-{[2-(4-methoxypyridin-2-yl)-5H,6H,7H-cyclopenta[d]pyrimidin-4-yl](methyl)amino}-N-(1-methylcyclopentyl)acetamide]
6.8 | CN(CC(=O)N1CCOCC1)c1nc(-c2ccccn2)nc2c1CCC2 [Compound 86, 2-{methyl[2-(pyridin-2-yl)-5H,6H,7H-cyclopenta[d]pyrimidin-4-yl]amino}-1-(morpholin-4-yl)ethan-1-one]
7.4 | COc1ccnc(-c2nc3c(c(N(C)CC(=O)N4CC[C@@H](O)C4)n2)CCC3)c1 [Compound 471, 1-[(3R)-3-hydroxypyrrolidin-1-yl]-2-{[2-(4-methoxypyridin-2-yl)-5H,6H,7H-cyclopenta[d]pyrimidin-4-yl](methyl)amino}ethan-1-one]
7.7 | C[C@@H](O)COc1ccnc(-c2nc3c(c(N(C)CC(=O)NC(C)(C)C)n2)CCC3)c1 [Compound 366, N-tert-butyl-2-[(2-{4-[(2R)-2-hydroxypropoxy]pyridin-2-yl}-5H,6H,7H-cyclopenta[d]pyrimidin-4-yl)(methyl)amino]acetamide]

Continued, molecule first:

Structure (SMILES) | pEC50
CN(CC(=O)NC(C)(C)C)c1nc(-c2ccc(OCCO)cn2)nc2c1CCC2 [Compound 40, N-tert-butyl-2-({2-[5-(2-hydroxyethoxy)pyridin-2-yl]-5H,6H,7H-cyclopenta[d]pyrimidin-4-yl}(methyl)amino)acetamide] | 7.1
COc1ccc(NC(=O)[C@@H](C)N(C)c2nc(-c3cc(OCCO)ccn3)nc3c2CCC3)cn1 [Compound 309, (2R)-2-({2-[4-(2-hydroxyethoxy)pyridin-2-yl]-5H,6H,7H-cyclopenta[d]pyrimidin-4-yl}(methyl)amino)-N-(6-methoxypyridin-3-yl)propanamide] | 8.1
COc1ccnc(-c2nc3c(c(N(C)CC(=O)NCCO)n2)CCC3)c1 [Compound 133, N-(2-hydroxyethyl)-2-{[2-(4-methoxypyridin-2-yl)-5H,6H,7H-cyclopenta[d]pyrimidin-4-yl](methyl)amino}acetamide] | 7
CC(C)(O)COc1ccnc(-c2nc3c(c(NCC(=O)NC(C)(C)C)n2)CCC3)c1 [Compound 409, N-tert-butyl-2-({2-[4-(2-hydroxy-2-methylpropoxy)pyridin-2-yl]-5H,6H,7H-cyclopenta[d]pyrimidin-4-yl}amino)acetamide] | 7.6
Cc1ccnc(-c2nc3c(c(N4CCCO[C@H]5CCC[C@@H]54)n2)CCC3)c1 [Compound 45, 2-{4-[(5aS,8aS)-octahydro-2H-cyclopenta[b][1,4]oxazepin-5-yl]-5H,6H,7H-cyclopenta[d]pyrimidin-2-yl}-4-methylpyridine] | 7.2
CN(c1nc(-c2ccccn2)nc2c1CCC2)[C@H]1CCN(C2(C)CCCC2)C1=O [Compound 207, (3S)-3-{methyl[2-(pyridin-2-yl)-5H,6H,7H-cyclopenta[d]pyrimidin-4-yl]amino}-1-(1-methylcyclopentyl)pyrrolidin-2-one] | 7.2
Cc1ccc(NC(=O)CN(C)c2nc(-c3cc(OCCO)ccn3)nc3c2CCC3)nn1 [Compound 286, 2-({2-[4-(2-hydroxyethoxy)pyridin-2-yl]-5H,6H,7H-cyclopenta[d]pyrimidin-4-yl}(methyl)amino)-N-(6-methylpyridazin-3-yl)acetamide] | 7.5
CN1CC(Oc2ccnc(-c3nc4c(c(N(C)CC(=O)NC(C)(C)C)n3)CCC4)c2)C1 [Compound 416, N-tert-butyl-2-[methyl(2-{4-[(1-methylazetidin-3-yl)oxy]pyridin-2-yl}-5H,6H,7H-cyclopenta[d]pyrimidin-4-yl)amino]acetamide] | 8
CN(CC(=O)NC(C)(C)C)c1nc(-c2cnc(O)cn2)nc2c1CCC2 [Compound 28, N-tert-butyl-2-{[2-(5-hydroxypyrazin-2-yl)-5H,6H,7H-cyclopenta[d]pyrimidin-4-yl](methyl)amino}acetamide] | 5.9
CN(CC(=O)NC(C)(C)C)c1nc(-c2cc(OCC(C)(C)O)ccn2)nc2c1CCC2 [Compound 174, N-tert-butyl-2-({2-[4-(2-hydroxy-2-methylpropoxy)pyridin-2-yl]-5H,6H,7H-cyclopenta[d]pyrimidin-4-yl}(methyl)amino)acetamide] | 8.2
COc1ccc(NC(=O)CN(C)c2nc(-c3cc(OC)ccn3)nc3c2CCC3)nc1 [Compound 152, N-(5-methoxypyridin-2-yl)-2-{[2-(4-methoxypyridin-2-yl)-5H,6H,7H-cyclopenta[d]pyrimidin-4-yl](methyl)amino}acetamide] | 7.9
CN(CC(=O)NC1(C)CCCCC1)c1nc(-c2ccccn2)nc2c1CCC2 [Compound 25, 2-{methyl[2-(pyridin-2-yl)-5H,6H,7H-cyclopenta[d]pyrimidin-4-yl]amino}-N-(1-methylcyclohexyl)acetamide] | 7.1
